Data published in patent US8227501B2, “1,6-dihydro-2H-3-oxa-6-aza-as-indacene compounds” (Ferrer Internacional, S.A., priority 2008, dated 2012).

Key:
[1] = molecular target: T1, recombinant human-MT1 receptor (Homo sapiens, UniProt P48039); assay: In vitro MT1 screening, agonist activity (AequoScreen aequorin luminescence); assay type: cell-based; details: percentage of activity relative to the reference agonist at the EC100 concentration
T1 construct: expressed in transfected cells; host or cells: unnamed cell line stably overexpressing human MT1, co-expressing mitochondrial apoaequorin and Gα16
T1 sequence (P48039 whole entry): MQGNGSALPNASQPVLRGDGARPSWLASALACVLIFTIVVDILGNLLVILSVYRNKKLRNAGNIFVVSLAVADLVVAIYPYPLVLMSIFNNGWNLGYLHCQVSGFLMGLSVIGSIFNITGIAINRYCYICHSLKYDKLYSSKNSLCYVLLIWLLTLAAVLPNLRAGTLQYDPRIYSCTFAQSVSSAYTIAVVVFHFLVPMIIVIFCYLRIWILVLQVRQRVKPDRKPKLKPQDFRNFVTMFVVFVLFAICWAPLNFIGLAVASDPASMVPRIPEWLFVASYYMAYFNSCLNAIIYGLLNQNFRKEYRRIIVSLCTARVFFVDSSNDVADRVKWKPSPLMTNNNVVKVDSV
From the text: To proceed with compound screening over MT1 receptor, a cell line characterised by a stable overexpression of recombinant human-MT1 receptor was used. This line co-expresses mitochondrial apoaequorin and subunit Gα16.
Subunit Gα16 belongs to […], in which intracelular signal transduction is produced via phospholipase (PLC). Activation of PLC produces an increment of inositol-triphosphate levels and intracellular calcium levels. This increment in calcium levels is, therefore, independent and full compatible with the signal transduction of MT1 receptor.
After binding to calcium, aequorin carries out the oxidation of colenterazine to colenteramide, a luminescent reaction.
Assay protocol for agonist screening consists in an overnight incubation of cells and colenterazine, being performed by an AequoScreen™ system instrument, PerkinElmer, USA. After that this mixture was injected over a plate that contains the solution of the compounds to screen and luminescence was immediately read. Only in case of antagonism screening, after 15-30 min of the first injection the reference agonist was added in the same well, and then luminescence was measured.
Agonist activity was calculated as percentage of activity relative to the reference agonist at the EC100 concentration. Activity of antagonists was expressed as the inhibition percentage over the activity of reference agonist at its EC80, concentration.

[2] = therapeutic use in humans; cited from earlier work

Row | SMILES | Agonism percentages of MT1, 1 nM ([1]; 1 nM compound) [%] | Agonism percentages of MT1, 100 nM ([1]; 100 nM compound) [%] | half-life [2] | activation at 0.001 µM ([1]; 1 nM compound, read-out: Agonism percentages of MT1, 1 nM) [%] | activation at 0.1 µM ([1]; 100 nM compound, read-out: Agonism percentages of MT1, 100 nM) [%]
1 | COc1ccc2[nH]cc(CCNC(C)=O)c2c1 [Melatonin, reference compound] | 48.0 | 102.6 | minutes |  | 
2 | CCC(=O)NCC[C@@H]1CCc2ccc3c(c21)CCO3 [Ramelteon, N-[2-[(8S)-1,6,7,8-tetrahydro-2H-indeno[5,4-b]furan-8-yl)ethyl]propionamide, reference compound] |  |  |  | 47.4 | 118
